Laboratory results as given in ChEMBL document CHEMBL6096692, “Discovery of 2(1H)-Quinoxalinone Derivatives as Potent and Selective MAT2A Inhibitors for the Treatment of MTAP-Deficient Cancers” (J Med Chem, 2025).
Where “and” joins values, the source holds several entries; their conditions need not be identical. Equal values may be shown once. Calls of active or inactive are those of the source. The calls are words filed in the database; no cut-off is given here.

Assays:
[1] = target: S-adenosylmethionine synthase isoform type-2 (Homo sapiens, UniProt P31153); assay: Inhibition of MAT2A (unknown origin) using L-methionine and ATP as substrate preincubated with compound for 10 mins followed by substrate addition and measured after 60 mins by kinase-glo max reagent based microplate reader analysis
Chain of S-adenosylmethionine synthase isoform type-2 (P31153 whole entry, canonical isoform): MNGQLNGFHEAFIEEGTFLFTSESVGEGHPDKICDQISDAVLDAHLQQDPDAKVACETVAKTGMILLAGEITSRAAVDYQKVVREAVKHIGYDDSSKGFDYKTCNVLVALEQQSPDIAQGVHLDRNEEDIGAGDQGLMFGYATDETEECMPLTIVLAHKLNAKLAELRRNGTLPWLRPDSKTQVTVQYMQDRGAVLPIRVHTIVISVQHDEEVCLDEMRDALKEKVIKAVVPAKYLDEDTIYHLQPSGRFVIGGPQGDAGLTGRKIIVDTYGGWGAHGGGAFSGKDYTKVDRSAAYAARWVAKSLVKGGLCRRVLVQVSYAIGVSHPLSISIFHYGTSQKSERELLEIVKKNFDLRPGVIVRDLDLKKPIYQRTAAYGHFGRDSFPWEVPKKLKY

[2] = Selectivity index, ratio of IC50 for antiproliferative activity against mouse B16-F10 cells harboring wild type MTAP assessed as inhibition of cell viability to IC50 for antiproliferative activity against MTAP knockout mouse B16-F10 cells assessed as inhibition of cell viability; assay type: functional
B16-F10 [3] = assay: Antiproliferative activity against MTAP knockout mouse B16-F10 cells assessed as inhibition of cell viability measured for 96 hrs by SRB assay; assay type: functional, cell-based; details: B16-F10, 96 h
B16-F10 [4] = assay: Antiproliferative activity against mouse B16-F10 cells harboring wild type MTAP assessed as inhibition of cell viability measured for 96 hrs by SRB assay; assay type: functional, cell-based; details: B16-F10, 96 h
SF-126 = assay: Induction of DNA damage in human SF-126 cells harboring wild type MTAP assessed as increase in gammaH2AX level at 0.1 to 10 uM measured for 96 hrs by Western blot analysis; assay type: functional, cell-based; details: dose 0.1-10 µM
MIA PaCa-2 = assay: Antitumor activity against MTAP null human MIA PaCa-2 cells xenografted in mouse assessed as tumor growth inhibition at 30 to 60 mg/kg, po measured after 28 days; assay type: functional, organism-based; details: dose 30-60 mg/kg, time 28.0 day

| Compound | IC50 [1] | IC50 (B16-F10 [3]) [nM] | IC50 (B16-F10 [4]) [nM] | Ratio IC50 [2] | Activity (SF-126) | Activity (MIA PaCa-2) |
| --- | --- | --- | --- | --- | --- | --- |
| Cn1cnc2ccc(-c3nc4cnc(C5CC5)cc4n(-c4ccc(OC(F)F)cc4)c3=O)cc21 | 613 nM |  |  |  |  |  |
| Cn1cnc2ccc(-c3nc4ccc(C5CC5)nc4n(-c4ccc(OC(F)F)cc4)c3=O)cc21 | 23.1 nM | 210 | 800 | 3.8 |  |  |
| COc1ccc(-c2nc3cnc(NCC(F)(F)F)nc3n(-c3cccc(OC(F)F)c3)c2=O)cc1 | > 1000 nM |  |  |  |  |  |
| O=c1c(-c2ccc3c(c2)CCCO3)nc2cnc(NCC(F)(F)F)nc2n1-c1ccc(OC(F)F)cc1 | 37.7 nM | 1670 | > 20000 | >12 |  |  |
| O=c1c(-c2ccc3nccn3c2)nc2ccc(C3CC3)cc2n1-c1ccc(OC(F)F)cc1 | 63.9 nM | 780 | > 20000 | >25.6 |  |  |
| O=c1c(-c2ccc3ncn(C4CCCC4)c3c2)nc2cnc(NCC(F)(F)F)nc2n1-c1ccc(OC(F)F)cc1 | 108 nM and 23.1 nM | 300 | 9740 | 32.5 |  |  |
| Cn1cc2cc(-c3nc4cnc(NCC(F)(F)F)nc4n(-c4ccc(OC(F)F)cc4)c3=O)ccc2n1 | 38.8 nM | 1250 | > 20000 | >16 |  |  |
| O=c1c(-c2ccn3nccc3c2)nc2ccc(C3CC3)cc2n1-c1ccc(OC(F)F)cc1 | 81.4 nM | 1340 | 13900 | 10.4 |  |  |
| Cn1cnc2ccc(-c3nc4cnc(NC5CC5)nc4n(-c4ccc(OC(F)F)cc4)c3=O)cc21 | 49 nM |  |  |  |  |  |
| COc1ccc(-c2nc3cnc(NCC(F)(F)F)nc3n(-c3ccc(OC(F)F)cc3)c2=O)cc1 | 100 nM | 3300 | > 20000 | >6.1 |  |  |
| COc1ccc(-n2cc3cnc(NCC(F)(F)F)nc3c(-c3ccc(Br)cc3)c2=O)cc1 | 56.1 nM | 330 | 2150 | 6.5 | inactive | Active |
| Cc1nc2ccc(-c3nc4cnc(NCC(F)(F)F)nc4n(-c4ccc(OC(F)F)cc4)c3=O)cc2n1C | 64.4 nM | 530 | 18100 | 34.2 |  |  |
| CCOc1ccc2nc(-c3ccc4ncn(C)c4c3)c(=O)n(-c3ccc(OC(F)F)cc3)c2c1 | 104 nM | 3080 | > 20000 | >6.5 |  |  |
| COc1ccc(-c2nc3cnc(NCC(F)(F)F)nc3n(-c3ccc(C(F)(F)F)cc3)c2=O)cc1 | > 1000 nM |  |  |  |  |  |
| O=c1c(-c2ccc3nncn3c2)nc2ccc(C3CC3)cc2n1-c1ccc(OC(F)F)cc1 | 103 nM | 1130 | 14900 | 13.2 |  |  |
| Cn1cnc2ccc(-c3nc4cnc(NCC5CC5)nc4n(-c4ccc(OC(F)F)cc4)c3=O)cc21 | 613 nM | 2960 | 7240 | 2.4 |  |  |

Second part, led by results:

| IC50 [1] | IC50 (B16-F10 [3]) [nM] | IC50 (B16-F10 [4]) [nM] | Compound | Ratio IC50 [2] | Activity (SF-126) | Activity (MIA PaCa-2) |
| --- | --- | --- | --- | --- | --- | --- |
| 138 nM | 9270 | > 20000 | COc1ccc(-c2nc3cnc(NCC(F)(F)F)nc3n(-c3ccc(Cl)cc3)c2=O)cc1 | >2.2 |  |  |
| 83 nM | 400 | 16600 | O=c1c(-c2ccc3ncn(C4CC4)c3c2)nc2cnc(NCC(F)(F)F)nc2n1-c1ccc(OC(F)F)cc1 | 41.4 |  |  |
| 228 nM |  |  | Cn1cnc2ccc(-c3nc4ccc(C5CCC5)cc4n(-c4ccc(OC(F)F)cc4)c3=O)cc21 |  |  |  |
| 138 nM | 370 | 3330 | CC(C)n1cnc2ccc(-c3nc4ccc(C5CC5)cc4n(-c4ccc(OC(F)F)cc4)c3=O)cc21 | 9 |  |  |
| 79.2 nM | 4360 | > 20000 | Cn1cc2cc(-c3nc4ccc(C5CC5)cc4n(-c4ccc(OC(F)F)cc4)c3=O)ccc2n1 | >4.6 |  |  |
| > 1000 nM |  |  | COc1ccc(-c2nc3cnc(NCC(F)(F)F)nc3n(-c3ccc(OCC(F)F)cc3)c2=O)cc1 |  |  |  |
| 89.2 nM | 760 | 5260 | CC1=Nc2ccc(-c3nc4ccc(C5CC5)cc4n(-c4ccc(OC(F)F)cc4)c3=O)cc2C1(C)C | 6.9 |  |  |
| 89 nM | 2480 | > 20000 | COc1ccc2nc(-c3ccc4ncn(C)c4c3)c(=O)n(-c3ccc(OC(F)F)cc3)c2c1 | >8.1 |  |  |
| 115 nM | 14300 | > 20000 | O=c1c(-c2ccc3ncnn3c2)nc2ccc(C3CC3)cc2n1-c1ccc(OC(F)F)cc1 | >1.4 |  |  |
| 63.4 nM | 310 | > 20000 | Cn1cnc2ccc(-c3nc4cnc(NCC(F)(F)F)nc4n(-c4ccc(OC(F)F)cc4)c3=O)cc21 | >64.5 |  |  |
| > 1000 nM |  |  | COc1ccc(-c2nc3cnc(NCC(F)(F)F)nc3n(-c3ccc(OC(F)F)nc3)c2=O)cc1 |  |  |  |
| 28.9 nM | 1520 | 9070 | Cn1nnc2ccc(-c3nc4ccc(C5CC5)cc4n(-c4ccc(OC(F)F)cc4)c3=O)cc21 | 3.8 |  |  |
| 89 nM | 2480 | > 20000 | O=c1c(-c2ccc3c(c2)CCO3)nc2cnc(NCC(F)(F)F)nc2n1-c1ccc(OC(F)F)cc1 | >8.1 |  |  |
| 98.5 nM |  |  | O=c1c(-c2ccc3ncoc3c2)nc2ccc(C3CC3)cc2n1-c1ccc(OC(F)F)cc1 |  |  |  |
| 435 nM |  |  | O=c1c(-c2ccc3ncccc3c2)nc2cnc(NCC(F)(F)F)nc2n1-c1ccc(OC(F)F)cc1 |  |  |  |
| 151 nM | 6540 | > 20000 | COc1ccc(-c2nc3cnc(NCC(F)(F)F)nc3n(-c3ccc(Br)cc3)c2=O)cc1 | >3.1 |  |  |
